Where two headings read alike, the source gives them in different places.
How the values were obtained:
[1] = Assay C: metabolic stability in human liver microsomes (human MST); type: in vitro ADME; conditions: for half-life at 1 μM: pH 7.6, pooled human liver microsomes, 1 μM test compound, 37° C., read-out: Assay C: Human MST t1/2; for stability in human liver microsomes compared with closest prior art compounds in WO2016/034882 (in words): versus closest prior art examples of WO2016/034882
Procedure: C. Assessment of Metabolic Stability in Human Liver Microsomes (Human MST) The metabolic stability of the compounds according to the invention may be investigated as follows: The metabolic degradation of the test compound is assayed at 37° C. with pooled human liver microsomes. The final incubation volume of 100 μL per time point contains TRIS buffer pH 7.6 at room temperature (0.1 M), MgCl2 (5 mM), microsomal protein (1 mg/mL) and the test compound at a final concentration of 1 μM. Following a short pre-incubation period at 37° C., the reactions are initiated by addition of beta-nicotinamide adenine dinucleotide phosphate, reduced form (NADPH, 1 mM), and terminated by transferring an aliquot into solvent after different time points. After centrifugation (10000 g, 5 min), an aliquot of the supernatant is assayed by LC-MS/MS for the amount of parent compound. The half-life (t1/2) is determined by the slope of the semi-logarithmic plot of the concentration-time profile.

[2] = target: T1, human Orexin 1 receptor (Homo sapiens, UniProt O43613); assay: Assay A: in vitro testing of OX1R potency, OX1R IP1; type: cell-based; conditions: Table 3, read-out: Assay A OX1R Kb [nM] (Orexin A concentration)
T1 construct: stably expressing the full-length human Orexin 1 receptor; expressed in transfected cells; host or cells: CHO-K1 (CHO-K1/hOx1)
T1 sequence (O43613 1-425): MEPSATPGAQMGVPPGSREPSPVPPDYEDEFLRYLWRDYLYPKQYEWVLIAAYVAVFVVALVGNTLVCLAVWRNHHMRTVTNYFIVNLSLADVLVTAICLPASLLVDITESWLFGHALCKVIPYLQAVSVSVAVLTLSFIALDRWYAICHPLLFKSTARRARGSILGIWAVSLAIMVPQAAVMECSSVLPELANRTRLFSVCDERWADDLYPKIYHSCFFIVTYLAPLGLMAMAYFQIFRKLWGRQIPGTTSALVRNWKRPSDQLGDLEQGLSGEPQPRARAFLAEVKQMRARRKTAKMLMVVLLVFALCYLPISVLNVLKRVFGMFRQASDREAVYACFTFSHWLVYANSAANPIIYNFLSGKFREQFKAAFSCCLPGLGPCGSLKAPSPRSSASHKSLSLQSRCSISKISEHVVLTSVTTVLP
Description: Chem. Genomics 2009, 3, 22-32. […] AssayExplorer (Accelrys). […] Sci. 1993, 14(4), 110-112).

[3] = target: T2, OX2R (Homo sapiens, UniProt O43614); assay: OX2R in vitro potency as reported in WO2016/034882; type: cell-based; conditions: Table 1 of WO2016/034882
T2 sequence (O43614 1-444): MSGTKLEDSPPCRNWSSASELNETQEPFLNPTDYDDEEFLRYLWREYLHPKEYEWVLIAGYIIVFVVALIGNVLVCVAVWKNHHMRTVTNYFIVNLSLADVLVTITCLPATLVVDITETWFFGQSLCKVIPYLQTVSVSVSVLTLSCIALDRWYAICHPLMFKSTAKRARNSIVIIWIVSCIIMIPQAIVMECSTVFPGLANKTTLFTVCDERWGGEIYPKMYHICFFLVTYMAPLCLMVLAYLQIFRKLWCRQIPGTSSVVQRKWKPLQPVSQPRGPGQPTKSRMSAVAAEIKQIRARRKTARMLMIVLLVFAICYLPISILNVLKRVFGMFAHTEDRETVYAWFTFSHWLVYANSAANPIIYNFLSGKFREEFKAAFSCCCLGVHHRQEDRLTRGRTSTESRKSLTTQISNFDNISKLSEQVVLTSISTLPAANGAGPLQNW

[4] = target: T2, OX2R; conditions: Table 3 of WO2016/034882, cited from earlier work

| SMILES | half-life at 1 μM [1] [h] | Kb ([2]; 0.5 nM Orexin A) [nM] | Kb ([2]; 50 nM Orexin A) [nM] | OX2R IC50/OX1R IC50 [3] | stability in human liver microsomes compared with closest prior art compounds in WO2016/034882 (in words) [1] | OX2R pIC50 [4] | IC50 ([4]; read-out: OX2R IC50 (corresponds to pIC50) (converted)) [nM] |
| --- | --- | --- | --- | --- | --- | --- | --- |
| CCN(C(=O)c1ccc(F)cc1-n1nccn1)[C@@H](C)COc1cnc(C(F)(F)F)cn1 [Example 2] | > 2.17 | 4.5 | – | – | – | – | – |
| CCN(C(=O)c1cc(F)c(F)cc1-n1nccn1)[C@@H](C)COc1cnc(C(F)(F)F)cn1 [Example 4] | > 2.17 | 5.5 | – | – | – | – | – |
| CCN(C(=O)c1cccc(C)c1-c1nnc(C)o1)[C@@H](C)COc1cnc(C(F)(F)F)cn1 [Example 15] | 1.52 | 1.3 | 2.3 | – | – | – | – |
| CCN(C(=O)c1ccc(C)cc1-c1nnc(C)o1)[C@@H](C)COc1cnc(C(F)(F)F)cn1 [Example 14] | 1.48 | 4.6 | – | – | – | – | – |
| CCN(C(=O)c1ccccc1-n1cccn1)[C@@H](C)COc1cnc(C(F)(F)F)cn1 [Example 9] | 0.417 | 5.4 | – | – | – | – | – |
| CC[C@@H](CNc1cnc(C(F)(F)F)cn1)N(C)C(=O)c1cc(Cl)ccc1-n1nccn1 [Ex 40 in WO2016/ 034882, reference compound] | – | 0.73 | – | Table 1: 156 | – | – | – |
| CCN(C(=O)c1ccccc1-n1nccn1)[C@@H](C)COc1cnc(C(F)(F)F)cn1 [Example 1] | > 2.17 | 0.97 | – | – | – | – | – |
| CCN(C(=O)c1ccccc1-c1noc(C)n1)[C@@H](C)COc1cnc(C(F)(F)F)cn1 [Example 32] | 1.1 | 2.1 | – | – | – | – | – |
| CCN(C(=O)c1ccc(F)cc1-c1ncccn1)[C@@H](C)COc1cnc(C(F)(F)F)cn1 [Example 27] | > 2.17 | 1 | – | – | markedly improved stability | – | – |
| CCN(C(=O)c1ccc(C(F)(F)F)cc1-n1nccn1)[C@@H](C)COc1cnc(C(F)(F)F)cn1 [Example 25] | 0.383 | 12 | – | – | – | – | – |
| CCN(C(=O)c1cc(F)ccc1-n1nccn1)[C@@H](C)COc1cnc(C(F)(F)F)cn1 [Example 3] | > 2.17 | 2.1 | – | – | – | – | – |
| CCN(C(=O)c1ccccc1-c1nc(C)no1)[C@@H](C)COc1cnc(C(F)(F)F)cn1 [Example 28] | 0.65 | 3.9 | – | – | – | – | – |
| CCN(C(=O)c1ccc(F)c(F)c1-n1nccn1)[C@@H](C)COc1cnc(C(F)(F)F)cn1 [Example 33] | > 2.17 | 2.5 | – | – | – | – | – |
| CCN(C(=O)c1ccc(OC)cc1-n1nccn1)[C@@H](C)COc1cnc(C(F)(F)F)cn1 [Example 18] | 1.18 | 1.7 | 1.8 | – | – | – | – |
| CCN(C(=O)c1ccc(C)cc1-n1nccn1)[C@@H](C)COc1cnc(C(F)(F)F)cn1 [Example 10] | 1.33 | – | 0.44 | – | markedly improved stability | – | – |
| CCN(C(=O)c1cccc(F)c1-c1ncccn1)[C@@H](C)COc1cnc(C(F)(F)F)cn1 [Example 29] | > 2.17 | 0.64 | 0.51 | – | markedly improved stability | – | – |
| CC[C@@H](CNc1cnc(C(F)(F)F)cn1)N(CC)C(=O)c1nc(C)ccc1-n1nccn1 [Ex 70 in WO2016/ 034882] | 0.333 | – | 0.14 | – | – | 5.3 | > 5000 |
| CCN(C(=O)c1ccccc1-c1ncccn1)[C@@H](C)COc1cnc(C(F)(F)F)cn1 [Example 30] | > 2.17 | 0.55 | 0.63 | – | markedly improved stability | – | – |
| CCN(C(=O)c1cccc(F)c1-n1nccn1)[C@@H](C)COc1cnc(C(F)(F)F)cn1 [Example 22] | > 2.17 | 2.1 | 2.1 | – | – | – | – |
| CCN(C(=O)c1cccc(F)c1-c1nnc(C)o1)[C@@H](C)COc1cnc(C(F)(F)F)cn1 [Example 12] | > 2.17 | 12 | – | – | – | – | – |
| CCN(C(=O)c1cc(F)cc(F)c1-n1nccn1)[C@@H](C)COc1cnc(C(F)(F)F)cn1 [Example 6] | > 2.17 | 3 | – | – | – | – | – |
| CCN(C(=O)c1cc(OC)ccc1-n1nccn1)[C@@H](C)COc1cnc(C(F)(F)F)cn1 [Example 8] | 1.22 | – | 0.8 | – | – | – | – |
| CCN(C(=O)c1cc(C(F)(F)F)ccc1-n1nccn1)[C@@H](C)COc1cnc(C(F)(F)F)cn1 [Example 7] | > 2.17 | 13 | – | – | – | – | – |
| CCN(C(=O)c1ccc(Cl)cc1-n1nccn1)[C@@H](C)COc1cnc(C(F)(F)F)cn1 [Example 24] | 1.52 | 1.1 | 1 | – | – | – | – |
